Our source for the IC50 values is patent US12065445B2, “CDK2 inhibitors and methods of using the same” (Cedilla Therapeutics, Inc., priority 2021, dated 2024).

The subject of one assay is Kuramochi cells. Description: BrdU Cell Proliferation Assay. The settings on record: read-out: BrdU - KURAMOCHI.1: IC50. The assay is classed as cell-based. In short, it runs like this: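 Signal is 450 nm absorbance from a peroxidase anti-BrdU ELISA after a 1-hour BrdU label, background-subtracted and normalized to DMSO-treated wells. Kuramochi cells (2,000 per well) had been exposed to compound for 4 days. Dosing used a 10-point dose response in 3-fold steps.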

Assay [1] has as its system Kuramochi cells labeled with mApple-H2B. Description: IncuCyte Cell Proliferation Assay. It counts as cell-based. The settings on record: 72 h. In short, it runs like this: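 GI50 came from dose-response fits of cell-count fold change between 0 and 72 h, normalized to DMSO controls. Counts were fluorescent nuclei from live-cell images over a 10-point, ½ log series starting at 20 μM.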

Broadly, the IC50 is the point on the concentration scale where inhibition reaches its midpoint. For `C[C@@H](OCC1CCCCC1)[C@H](NC(=O)C1CN(C(=O)c2cnn(Cc3ccccc3)c2)CC12CN(C(=O)[C@H]1CC1(C)C)C2)C(=O)N1CC(C)(C)C1` (some centres unmarked) [I-153 mixture], the half-inhibitory concentration (IC50) (in the assay with Kuramochi cells; in assay [1]) was ≤ 0.5 µM throughout.
For `C[C@@H](OCC1CCCCC1)[C@@H](CO)NC(=O)[C@@H]1CN(C(=O)c2cncs2)CC12CN(C(=O)[C@H]1CC1(C)C)C2` [I-307], the 50% inhibitory concentration (IC50) (in the assay on Kuramochi cells; in assay [1]) was 0.5 to 5 µM throughout.
On to `CNC(=O)[C@@H](NC(=O)[C@@H]1CN(C(=O)c2cnc(COC(C)(C)C)s2)CC12CN(C(=O)[C@H]1CC1(C)C)C2)[C@@H](C)OCC1CCCCC1` [I-175A], for which the half-inhibitory concentration (IC50) (in the assay on Kuramochi cells; in assay [1]) was ≤ 0.5 µM throughout.
For the compound `CNC(=O)[C@@H](NC(=O)[C@@H]1CN(C(=O)Cc2cn[nH]c2)CC12CN(C(=O)[C@H]1CC1(C)C)C2)[C@@H](C)OCc1ccccc1` [I-358], the IC50 is > 10 µM in the assay on Kuramochi cells and > 20 µM in assay [1].
In the same order, the values of `CNC(=O)[C@@H](NC(=O)[C@@H]1CN(C(=O)c2cnn(Cc3ccccc3)c2)CC12CN(C(=O)[C@H]1CC1(C)C)C2)[C@@H](C)OCC(C)C` [I-137A] are > 10 µM and > 20 µM.
For `Cc1ccc(CNC(=O)[C@H]2CN(C(=O)c3cnn(Cc4ccccc4)c3)CC23CN(C(=O)[C@H]2CC2(C)C)C3)nn1` [I-381], the IC50 is > 10 µM in the assay with Kuramochi cells and > 20 µM in assay [1].
In the same order, the values of `CC1(C)C[C@@H]1C(=O)N1CC2(CN(C(=O)c3cncs3)C[C@H]2C(=O)NC(c2cccc(C3CCCCC3)n2)C2COCCO2)C1` (some centres unmarked) [I-496] are > 10 µM and 5 to 20 µM.
For `C[C@@H](OCC1CCCCC1)[C@H](NC(=O)C1CN(C(=O)c2cnn(Cc3ccccc3)c2)CC12CN(C(=O)[C@H]1CC1(C)C)C2)C(=O)N1CCCC(CO)C1` (some centres unmarked) [I-105], in that order: ≤ 0.5 µM and ≤ 0.5 µM.
For `CNC(=O)[C@@H](NC(=O)[C@@H]1CN(C(=O)c2cnn(Cc3ccccc3)c2)CC12CN(C(=O)[C@H]1CC1(C)C)C2)[C@@H](C)N(C)CC1CCCCC1` [I-266], the figures for the concentration for half-maximal inhibition (IC50) (in the assay with Kuramochi cells; in assay [1]) were > 10 µM and > 20 µM, respectively.
As for `C[C@@H](OCC1CCOCC1)[C@@H](COC(F)(F)F)NC(=O)[C@@H]1CN(C(=O)c2cncs2)CC12CN(C(=O)[C@H]1CC1(C)C)C2` [I-428], the IC50 with Kuramochi cells is > 10 µM; in assay [1] it was > 20 µM.
As for `CNC(=O)[C@@H](NC(=O)[C@@H]1CN(C(=O)c2cnn(Cc3ccccc3)c2)CC12CN(C(=O)[C@H]1CC1(C)C)C2)[C@@H](C)OCc1cccc(O)c1` [I-262], the IC50 in the assay with Kuramochi cells was > 10 µM; in assay [1], > 20 µM.
For `C[C@@H](OCC1CCCCC1)[C@H](NC(=O)[C@@H]1CN(C(=O)c2cnn(C(F)(F)F)c2)CC12CN(C(=O)[C@H]1CC1(C)C)C2)C(=O)N1CCCCC1` [I-115], the concentration for half-maximal inhibition (IC50) with Kuramochi cells was > 10 µM; in assay [1], 5 to 20 µM.
For `COC[C@H]1CCCN(C(=O)CNC(=O)[C@@H]2CN(C(=O)c3cncs3)CC23CN(C(=O)[C@H]2CC2(C)C)C3)C1` [I-323], in that order: > 10 µM and > 20 µM.
As to `CNC(=O)[C@@H](NC(=O)[C@@H]1CN(C(=O)c2cnn(Cc3ccccc3)c2)CC12CN(C(=O)[C@H]1CC1(C)C)C2)[C@@H](C)SCc1ccccc1` [I-368], the values for the half-inhibitory concentration (IC50) (in the assay with Kuramochi cells; in assay [1]) were > 10 µM and 5 to 20 µM, respectively.
For `CNC(=O)C(NC(=O)[C@@H]1CN(C(=O)c2cncs2)CC12CN(C(=O)[C@H]1CC1(C)C)C2)c1cccc(C2CCCCC2)n1` (some centres unmarked) [I-362], in that order: 0.5 to 5 µM and 5 to 20 µM.
For `C[C@@H](OCC1CCC(F)(F)CC1)[C@H](NC(=O)[C@@H]1CN(C(=O)c2cn[nH]c2)CC12CN(C(=O)[C@H]1CC1(C)C)C2)C(=O)N1CCC(F)(F)CC1` [I-228A], in that order: > 10 µM and > 20 µM.
For `C[C@@H](OCc1ccccc1)[C@H](NC(=O)[C@@H]1CN(C(=O)c2cnn(Cc3ccccc3)c2)CC12CN(C(=O)[C@H]1CC1(C)C)C2)C(N)=O` [I-176A], in that order: > 10 µM and > 20 µM.
Regarding `C[C@@H](OCC1CCCCC1)[C@H](NC(=O)[C@@H]1CN(C(=O)c2cncs2)CC12CN(C(=O)[C@H]1CC1(C)C)C2)C(=O)N1CCC(c2cnc[nH]2)CC1` [I-406], the IC50 (with Kuramochi cells; in assay [1]) was 0.5 to 5 µM each time.
In the case of `C[C@@H](OCC1CCCCC1)[C@H](NC(=O)[C@@H]1CN(C(=O)c2cnn(CC(F)(F)F)c2)CC12CN(C(=O)[C@H]1CC1(C)C)C2)C(=O)N1CCCCC1` [I-132], the IC50 (in the assay on Kuramochi cells; in assay [1]) was 0.5 to 5 µM in each case.
In the case of `C[C@@H](OCC1CCCCC1)[C@@H](COC1CCCCC1)NC(=O)[C@@H]1CN(C(=O)c2cncs2)CC12CN(C(=O)[C@H]1CC1(C)C)C2` [I-308], the IC50 with Kuramochi cells is ≤ 0.5 µM; in assay [1], 0.5 to 5 µM.
On to `C[C@@H](OCc1ccccc1)[C@H](NC(=O)[C@@H]1CN(C(=O)c2cnn(Cc3ccccc3)c2)CC12CN(C(=O)[C@H]1CC1(C)C)C2)C(=O)N1CCC(F)(F)CC1` [I-280], for which the concentration for half-maximal inhibition (IC50) (with Kuramochi cells; in assay [1]) was 0.5 to 5 µM each time.
On to `CNC(=O)[C@@H](NC(=O)[C@@H]1CN(C(=O)c2cnn(Cc3ccccc3)c2)CC12CN(C(=O)[C@H]1CC1(C)C)C2)[C@@H](C)OCC1CCC(C)(C)CC1` [I-372], for which the half-inhibitory concentration (IC50) (with Kuramochi cells; in assay [1]) was ≤ 0.5 µM each time.
As to `CNC(=O)[C@@H](NC(=O)[C@@H]1CN(C(=O)c2cnc(C3CC3)s2)CC12CN(C(=O)[C@H]1CC1(C)C)C2)[C@@H](C)OCC1CCCCC1` [I-178A], the results for the half-inhibitory concentration (IC50) (in the assay with Kuramochi cells; in assay [1]) were > 10 µM and 5 to 20 µM, respectively.
For `C[C@@H](OCC1CCCCC1)[C@@H](COC(F)(F)F)NC(=O)[C@@H]1CN(C(=O)c2cnn(Cc3ccccc3)c2)CC12CN(C(=O)[C@H]1CC1(C)C)C2` [I-309], in that order: 0.5 to 5 µM and 0.5 to 5 µM.
For `CNC(=O)C(NC(=O)[C@@H]1CN(C(=O)c2cncs2)CC12CN(C(=O)[C@H]1CC1(C)C)C2)c1cccc(N2CCCCC2)n1` (some centres unmarked) [I-432], in that order: > 10 µM and > 20 µM.
Regarding `C[C@@H](OCC1CCCCC1)[C@H](NC(=O)[C@@H]1CN(C(=O)c2cnn(Cc3ccccc3)c2)CC12CN(C(=O)[C@H]1CC1(C)C)C2)C(=O)N1CC[C@@H]1CN` [I-270], the IC50 in the assay with Kuramochi cells is > 10 µM; in assay [1], 5 to 20 µM.
`CNC(=O)[C@@H](NC(=O)[C@@H]1CN(C(=O)c2cncs2)CC12CN(C(=O)[C@H]1CC1(C)C)C2)[C@@H](C)OC(C)C1CCCCC1` (some centres unmarked) [I-279]: the concentration for half-maximal inhibition (IC50) (in the assay on Kuramochi cells; in assay [1]) was 0.5 to 5 µM each time.
For `CNC(=O)[C@@H](NC(=O)[C@@H]1CN(C(=O)c2cncs2)CC12CN(C(=O)[C@H]1CC1(C)C)C2)[C@@H](C)OC1CCCCC1` [I-290], the concentration for half-maximal inhibition (IC50) in the assay on Kuramochi cells was > 10 µM; in assay [1], 5 to 20 µM.
In the same order, the values of `CNC(=O)[C@@H](NC(=O)[C@@H]1CN(C(=O)c2cnn(Cc3ccccc3)c2)CC12CN(C(=O)C(C)(C)C)C2)[C@@H](C)OCC1CCCCC1` [I-174A] are 0.5 to 5 µM and 0.5 to 5 µM.
Regarding `C[C@@H](OCC1(C(F)(F)F)CC1)[C@H](NC(=O)[C@@H]1CN(C(=O)c2cncs2)CC12CN(C(=O)[C@H]1CC1(C)C)C2)C(=O)N1CCC(F)(F)CC1` [I-287], the half-maximal inhibitory concentration (IC50) is > 10 µM with Kuramochi cells and 5 to 20 µM in assay [1].
With `CNC(=O)[C@@H](NC(=O)[C@H]1CN(C(=O)c2cnn(Cc3ccccc3)c2)CC12CN(C(=O)[C@H]1CC1(C)C)C2)[C@@H](C)OCC(C)C` [I-137B], the half-maximal inhibitory concentration (IC50) in the assay with Kuramochi cells is > 10 µM; in assay [1], > 20 µM.
